One may read the Kd as the constant that tells how readily two partners part at equilibrium.

Entries after “also recorded” stand apart in the source; their conditions may differ. Positions of bridges follow the written chain, without caps; N, C: chain ends. Non-standard residues stand in square brackets, D forms with d. Residues, ends and D or L forms follow the SMILES beside them. Chains are numbered I, II in the order given. No end group written: not given here. *: point of attachment. aminooxyacetyl = NOCC(=O)*; Glyoxylyl = O=CC(=O)*

The values that follow come from patent publication US20090053807A1 (Novo Nordisk A/S, priority 1998, published 2009).

For one assay, the system named is FDC-P2 cells expressing the IL-3 and human IGF-1R receptors.
Assay: not given
Conditions: FDC-P2 cells, agonist format; Table 15.
On to “WLDQERAWLWCEISGRGCLSGGSGGSGGSGGSGSLDESFYDWFERQLGKK (disulfide 11-18 (inferred)) [D815-RP9 12 aa]”, for which the “ED50 Growth” value is 10,000 nM. With “WLDQERAWLWCEISGRGCLSGGSGGSGSLDESFYDWFERQLGKK (disulfide 11-18 (inferred)) [D815-RP9 6 aa]”, the “ED50 Growth” value came to 50 nM.

Staying with this assay, now noted: FDC-P2 cells; Table 15.
Take “WLDQERAWLWCEISGRGCLSGGSGGSGGSGGSGSLDESFYDWFERQLGKK (disulfide 11-18 (inferred)) [D815-RP9 12 aa]”: the “Max Action” value was found to be 100%. Regarding “WLDQERAWLWCEISGRGCLSGGSGGSGSLDESFYDWFERQLGKK (disulfide 11-18 (inferred)) [D815-RP9 6 aa]”, the “Max Action” value is recorded as greater than 50%.

For the next assay, the target named is T1, human insulin receptor (HIR) (Homo sapiens, UniProt P06213).
T1 construct: made in house
T1 sequence (P06213 28-758 limits assumed): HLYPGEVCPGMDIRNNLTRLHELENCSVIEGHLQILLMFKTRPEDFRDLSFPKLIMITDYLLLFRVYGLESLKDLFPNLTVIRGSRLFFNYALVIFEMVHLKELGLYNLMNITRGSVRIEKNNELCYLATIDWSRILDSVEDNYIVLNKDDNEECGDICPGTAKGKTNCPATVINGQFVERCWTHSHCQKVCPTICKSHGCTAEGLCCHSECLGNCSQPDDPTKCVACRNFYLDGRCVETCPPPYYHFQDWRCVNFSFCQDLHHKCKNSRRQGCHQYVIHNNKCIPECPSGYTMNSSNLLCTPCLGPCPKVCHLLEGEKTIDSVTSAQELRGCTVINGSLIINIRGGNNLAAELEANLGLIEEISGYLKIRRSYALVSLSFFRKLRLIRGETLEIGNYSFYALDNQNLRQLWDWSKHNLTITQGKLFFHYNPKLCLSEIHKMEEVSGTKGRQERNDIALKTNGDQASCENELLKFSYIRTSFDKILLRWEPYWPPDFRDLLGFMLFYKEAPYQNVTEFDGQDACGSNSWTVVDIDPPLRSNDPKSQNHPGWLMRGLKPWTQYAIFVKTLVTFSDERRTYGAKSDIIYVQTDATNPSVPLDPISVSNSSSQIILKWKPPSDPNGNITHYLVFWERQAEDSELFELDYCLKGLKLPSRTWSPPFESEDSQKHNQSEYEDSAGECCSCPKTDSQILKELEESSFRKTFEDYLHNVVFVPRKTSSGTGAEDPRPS
T1 sequence (P06213 763-1382 limits assumed): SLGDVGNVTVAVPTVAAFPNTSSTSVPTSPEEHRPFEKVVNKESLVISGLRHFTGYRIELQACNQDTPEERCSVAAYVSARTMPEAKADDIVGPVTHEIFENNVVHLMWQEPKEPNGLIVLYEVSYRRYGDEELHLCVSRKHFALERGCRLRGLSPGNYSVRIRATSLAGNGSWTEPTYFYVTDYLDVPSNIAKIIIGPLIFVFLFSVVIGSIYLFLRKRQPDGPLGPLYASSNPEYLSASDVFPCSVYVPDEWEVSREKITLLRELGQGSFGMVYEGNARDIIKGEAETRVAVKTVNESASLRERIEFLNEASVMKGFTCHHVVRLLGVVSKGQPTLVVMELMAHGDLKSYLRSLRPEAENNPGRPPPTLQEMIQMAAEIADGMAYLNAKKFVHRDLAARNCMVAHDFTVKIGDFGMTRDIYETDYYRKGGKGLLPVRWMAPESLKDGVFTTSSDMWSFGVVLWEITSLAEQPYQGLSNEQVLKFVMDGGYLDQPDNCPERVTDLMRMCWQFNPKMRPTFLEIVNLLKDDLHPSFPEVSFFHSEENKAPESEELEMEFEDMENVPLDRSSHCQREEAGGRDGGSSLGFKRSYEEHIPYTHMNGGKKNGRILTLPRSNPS
The assay is described as follows: Insulin receptor binding, competition with 125I-labeled insulin (radio-receptor assay). Conditions: HIR binding affinity of synthetic peptides.
Consider `CC(C)C[C@H](NC(=O)[C@@H](N)CCC(N)=O)C(=O)N[C@@H](CCC(=O)O)C(=O)N[C@@H](CCC(=O)O)C(=O)N[C@@H](CCC(=O)O)C(=O)N[C@@H](Cc1c[nH]c2ccccc12)C(=O)N[C@@H](C)C(=O)NCC(=O)N[C@H](C(=O)N[C@@H](CCC(N)=O)C(=O)N[C@H]1CSSC[C@@H](C(=O)N2CCC[C@H]2C(=O)N[C@@H](CO)C(=O)O)NC(=O)[C@H](CCC(=O)O)NC(=O)[C@H](CCCNC(=N)N)NC(=O)CNC(=O)[C@H](Cc2ccc(O)cc2)NC(=O)[C@H](C(C)C)NC(=O)[C@H](CCC(=O)O)NC1=O)C(C)C` [Peptide S226] (HELM PEPTIDE1{Q.L.E.E.E.W.A.G.V.Q.C.E.V.Y.G.R.E.C.P.S}$PEPTIDE1,PEPTIDE1,11:R3-18:R3$$$V2.0; N-terminus and C-terminus assumed; bridges inferred), for which binding was put at a Kd of 1600 nM.

For another assay, the system named is free fat cells. The assay is described as follows: Adipocyte / free fat cell (FFC) assay, 3H glucose incorporation into lipid.
Details: not given
On to (ESFYDWFERQLGK)2-23 [Peptide S415], for which the “activity in the FFC assay / at IR” value is recorded as “highly potent”. With “S453: Site 1-Site 2 heterodimer, C-N linkage (GSLDESFYDWFERQLGKKK[Glyoxylyl][Glyoxylyl]KEWLDQEWAWVQCEVYGRGCPSEE; disulfide 34-41 (inferred); not fully specified (residue 20, bridges); printed as GSLDESFYDWFERQLGKKK-Ald-17-Ald-KEWLDQ EWAWVQCEVYGRGCPSEE; also: Site 1-Site 2 heterodimer, C-N linkage via linker 17) [Peptide S453]”, the “activity in the FFC assay / at IR” value is “antagonist activity; also recorded: antagonist properties”.

The assay is the same for the next values; noted with them: FFC assay potency; number of + grades agonist activity.
Take `CC(C)C[C@H](NC(=O)[C@H](CCC(N)=O)NC(=O)[C@H](CCCNC(=N)N)NC(=O)[C@H](CCC(=O)O)NC(=O)[C@H](Cc1ccccc1)NC(=O)[C@H](Cc1c[nH]c2ccccc12)NC(=O)[C@H](CC(=O)O)NC(=O)[C@H](Cc1ccc(O)cc1)NC(=O)[C@H](Cc1ccccc1)NC(=O)[C@H](CO)NC(=O)[C@H](CCC(=O)O)NC(=O)[C@H](CC(=O)O)NC(=O)[C@H](CC(C)C)NC(=O)[C@H](CO)NC(=O)CNC(=O)CNC(=O)[C@H](CO)NC(=O)[C@@H]1CSSC[C@H](NC(=O)[C@H](CC(C)C)NC(=O)[C@@H](N)Cc2c[nH]cn2)C(=O)N[C@@H](C(C)C)C(=O)N[C@@H](CC(C)C)C(=O)N[C@@H](CCC(=O)O)C(=O)N[C@@H](CCC(=O)O)C(=O)N[C@@H](CC(C)C)C(=O)N[C@@H](Cc2ccccc2)C(=O)N[C@@H](Cc2c[nH]c3ccccc23)C(=O)NCC(=O)N[C@@H](C)C(=O)N[C@@H](CO)C(=O)N[C@@H](CC(C)C)C(=O)N[C@@H](Cc2ccccc2)C(=O)NCC(=O)N[C@@H](Cc2ccc(O)cc2)C(=O)N1)C(=O)O` [Peptide S521] (HELM PEPTIDE1{H.L.C.V.L.E.E.L.F.W.G.A.S.L.F.G.Y.C.S.G.G.S.L.D.E.S.F.Y.D.W.F.E.R.Q.L}$PEPTIDE1,PEPTIDE1,3:R3-18:R3$$$V2.0; N-terminus and C-terminus assumed; bridges inferred): the FEC entry is given as “+”.

Staying with this assay, now noted: FFC assay potency; number of + grades agonist potency.
On to `CC(C)[C@H](NC(=O)[C@H](Cc1ccccc1)NC(=O)[C@H](Cc1c[nH]c2ccccc12)NC(=O)[C@H](CC(=O)O)NC(=O)[C@H](Cc1ccc(O)cc1)NC(=O)[C@H](Cc1ccccc1)NC(=O)[C@H](CC(N)=O)NC(=O)[C@H](CCC(=O)O)NC(=O)[C@H](Cc1c[nH]cn1)NC(=O)[C@@H](N)Cc1ccccc1)C(=O)N[C@@H](CCCNC(=N)N)C(=O)N[C@@H](CCC(N)=O)C(=O)N[C@H](C(=O)N[C@@H](CO)C(=O)N[C@@H](CCCCN)C(=O)N[C@@H](CCCCN)C(=O)N[C@@H](CNC(=O)CON)C(N)=O)C(C)C` [Peptide S131], for which the FEC entry is “+”. The same measure, in the same setting: to `CC(C)C[C@H](NC(=O)[C@H](CCC(=O)O)NC(=O)[C@H](C)NC(=O)[C@@H](NC(=O)[C@H](Cc1ccccc1)NC(=O)[C@H](Cc1c[nH]c2ccccc12)NC(=O)[C@H](CC(=O)O)NC(=O)[C@H](Cc1ccc(O)cc1)NC(=O)[C@H](Cc1ccccc1)NC(=O)[C@H](CC(N)=O)NC(=O)[C@H](C)NC(=O)[C@H](CC(N)=O)NC(=O)[C@H](CCCNC(=N)N)NC(=O)[C@H](CCC(N)=O)NC(=O)[C@H](CC(C)C)NC(=O)[C@H](Cc1c[nH]c2ccccc12)NC(=O)[C@H](CC(=O)O)NC(=O)[C@@H](NC(=O)[C@H](CCCNC(=N)N)NC(=O)CNC(=O)[C@@H](N)CNC(=O)CON)C(C)C)C(C)C)C(=O)NCC(N)=O` [Peptide S245] belongs “+”; to `CC(C)C[C@@H]1NC(=O)[C@H](CO)NC(=O)[C@H](C)NC(=O)CNC(=O)CNC(=O)[C@H](Cc2ccccc2)NC(=O)[C@H](CC(C)C)NC(=O)[C@H](CCC(=O)O)NC(=O)[C@H](CCC(N)=O)NC(=O)[C@H](CC(C)C)NC(=O)[C@H](Cc2ccccc2)NC(=O)[C@@H](NC(=O)[C@H](CC(C)C)NC(=O)[C@@H]2CCCN2)CSSC[C@@H](C(=O)N[C@@H](CO)C(=O)NCC(=O)O)NC(=O)[C@H](Cc2ccc(O)cc2)NC(=O)CNC(=O)CNC1=O` [Peptide S262] (HELM PEPTIDE1{P.L.C.F.L.Q.E.L.F.G.G.A.S.L.G.G.Y.C.S.G}$PEPTIDE1,PEPTIDE1,3:R3-18:R3$$$V2.0; N-terminus and C-terminus assumed; bridges inferred), 0; to `CC[C@H](C)[C@@H]1NC(=O)[C@H](CCC(=O)O)NC(=O)[C@@H](NC(=O)[C@H](Cc2c[nH]c3ccccc23)NC(=O)[C@@H](NC(=O)[C@H](Cc2c[nH]c3ccccc23)NC(=O)[C@H](C)NC(=O)[C@H](CCCNC(=N)N)NC(=O)[C@H](CCC(=O)O)NC(=O)[C@H](CCC(N)=O)NC(=O)[C@H](CCC(=O)O)NC(=O)[C@H](CC(C)C)NC(=O)[C@@H](N)Cc2c[nH]c3ccccc23)[C@@H](C)CC)CSSC[C@@H](C(=O)N[C@@H](CCCNC(=N)N)C(=O)N[C@@H](C)C(=O)O)NC(=O)CNC(=O)[C@H](CO)NC(=O)CNC(=O)[C@H](CCC(N)=O)NC1=O` [Peptide S263] (HELM PEPTIDE1{W.L.E.Q.E.R.A.W.I.W.C.E.I.Q.G.S.G.C.R.A}$PEPTIDE1,PEPTIDE1,11:R3-18:R3$$$V2.0; N-terminus and C-terminus assumed; bridges inferred), 0.

For `CC[C@@H](C)[C@@H](NC(=O)[C@H](CCC(=O)O)NC(=O)[C@H](CC(=O)O)NC(=O)[C@H](Cc1ccccc1)NC(=O)[C@H](Cc1c[nH]c2ccccc12)NC(=O)[C@H](CC(=O)O)NC(=O)[C@H](Cc1ccc(O)cc1)NC(=O)[C@H](Cc1ccccc1)NC(=O)[C@H](CCC(=O)O)NC(=O)C(C)(C)NC(=O)[C@H](CC(=O)O)NC(=O)C1(NC(=O)[C@@H](N)CC(=O)O)Cc2ccccc2C1)C(=O)N1CCC[C@H]1C(=O)N[C@H](CCC(N)=O)C(N)=O` [Peptide S319] (HELM PEPTIDE1{D.[O=C(C1(N[*:1])Cc2ccccc2C1)[*:2]].D.[Aib].E.F.Y.D.W.F.D.E.[dI].P.[dQ].[am]}$$$$V2.0), the FEC was determined as 0. Still for that read-out and setting: to `CC[C@@H](C)[C@@H](NC(=O)[C@H](CCC(=O)O)NC(=O)[C@H](CC(=O)O)NC(=O)[C@H](Cc1ccccc1)NC(=O)[C@H](Cc1c[nH]c2ccccc12)NC(=O)[C@H](CC(=O)O)NC(=O)[C@H](Cc1ccc(O)cc1)NC(=O)[C@H](Cc1ccccc1)NC(=O)[C@@H]1C[C@@H](O)CN1C(=O)[C@H](CC(=O)O)NC(=O)[C@H](CCCNC(=N)N)NC(=O)[C@@H](CCC(=O)O)NC(=O)[C@@H](N)Cc1ccc(O)cc1)C(=O)NCC(=O)NCC(N)=O` [Peptide S321] belongs 0; to `CC[C@@H](C)[C@@H](NC(=O)[C@H](CCC(=O)O)NC(=O)[C@H](CC(=O)O)NC(=O)[C@H](Cc1ccccc1)NC(=O)[C@H](Cc1c[nH]c2ccccc12)NC(=O)[C@H](CC(=O)O)NC(=O)[C@H](Cc1ccc(O)cc1)NC(=O)[C@H](Cc1ccccc1)NC(=O)[C@@H]1C[C@@H](O)CN1C(=O)[C@H](CC(=O)O)NC(=O)[C@H](CCCNC(=N)N)NC(=O)[C@H](Cc1c[nH]c2ccccc12)NC(=O)[C@@H](N)CCC(=O)O)C(=O)N1C[C@H](O)C[C@H]1C(=O)N[C@H](CCC(=O)O)C(N)=O` [Peptide S322] (HELM PEPTIDE1{E.W.R.D.[Hyp].F.Y.D.W.F.D.E.[dI].[Hyp].[dE].[am]}$$$$V2.0), 0. On the same count and under the same terms, to `CC(C)C[C@@H]1NC(=O)[C@H](CO)NC(=O)[C@H](C)NC(=O)CNC(=O)[C@H](Cc2c[nH]c3ccccc23)NC(=O)[C@H](Cc2ccccc2)NC(=O)[C@H](CC(C)C)NC(=O)[C@H](CCC(=O)O)NC(=O)[C@H](CCC(=O)O)NC(=O)[C@H](CC(C)C)NC(=O)[C@H](C(C)C)NC(=O)[C@@H](NC(=O)[C@H](CC(C)C)NC(=O)[C@H](Cc2c[nH]cn2)NC(=O)[C@@H](N)CCCCN)CSSC[C@@H](C(=O)N[C@@H](CO)C(=O)NCC(=O)N[C@@H](CCCCN)C(=O)N[C@@H](CCCCN)C(N)=O)NC(=O)[C@H](Cc2ccc(O)cc2)NC(=O)CNC(=O)[C@H](Cc2ccccc2)NC1=O` [Peptide S331] (HELM PEPTIDE1{K.H.L.C.V.L.E.E.L.F.W.G.A.S.L.F.G.Y.C.S.G.K.K.[am]}$PEPTIDE1,PEPTIDE1,4:R3-19:R3$$$V2.0) belongs 0; to “S326 (GIISQSCPESFYDWFAGQVSDPWWCW) [Peptide S326]”, “−”; to “S419 (chain 1 K(aminooxyacetyl)EWLDQEWAWVQCEVYGRGCPSEE; chain 2 K(aminooxyacetyl)EWLDQEWAWVQCEVYGRGCPSEE; disulfide I:13-I:20, II:13-II:20 (inferred); not fully specified (bridges); also: dimer, the two chains joined N-terminus to N-terminus through linker 14 at the side chain of residue 1) [Peptide S419]”, 0.
